Assay results taken from US8618111B2, “5-alkynyl-pyrimidines” (Boehringer Ingelheim International GmbH, priority 2010, dated 2013).

Key:
[1] = test system: PC3 (human prostate carcinoma cell line) cells; test: PC3 proliferation test; type: cell-based; conditions: PC-3, 72 h, 3 days incubation, DNA dye fluorescence
Procedure: The test is based on measurement of cellular DNA content via fluorescent dye binding. Because cellular DNA content is highly regulated, it is closely proportional to cell number. The extent of proliferation is determined by comparing cell counts for samples treated with drugs with untreated controls.
PC3 (human prostate carcinoma cell line) cells are sown in microtitre plates and incubated overnight in culture medium at 37° C. and 5% CO2. The test substances are diluted stepwise and added to the cells such that the total volume is 200 μL/well. Cells to which diluent, but not substance, is added serve as controls.

[2] = biological target: PI3Kalpha (Homo sapiens (Human), UniProt P42336); test: Inhibition of PI3Kalpha-induced PIP-2 phosphorylation (filter-binding assay); type: biochemical; conditions: 33P-ATP
Procedure: Inhibition of PI3Kalpha-Induced PIP-2 Phosphorylation
Method Type: Filter-Binding-Assay
Aliquoted in desired amounts and stored at −80° C. Final assay concentration 25 ng/well.

[3] = biological target: mTOR (Homo sapiens (Human), UniProt P42345); test: mTOR kinase activity assay (phosphorylation status of mTOR substrate 4E-BP1; TR-FRET); type: biochemical; conditions: GFP-4E-BP1 substrate, 8 μM ATP
Procedure: mTOR Kinase Activity Assay
(Phosphorylation Status of mTOR Substrate 4E-BP1; TR-FRET)
The mTOR kinase TR-FRET assay utilizes a physiologically relevant protein substrate for mTOR (4E-BP1, labeled with an acceptor fluorophore (Green Fluorescent Protein) and paired with a corresponding Tb-labeled phospho-specific antibody.
The assay itself is divided into two phases: the reaction phase and the detection phase. In the reaction phase, all components required for the kinase reaction are added to the well, including the labeled protein substrate. The reaction is allowed to incubate for 60 minutes. After the reaction, EDTA is added to stop the kinase reaction, and terbium-labeled antibody is added to bind phosphorylated product. Because the terbium chelate is stable at the EDTA concentrations used to stop a kinase assay, the antibody and EDTA can be pre-mixed prior to addition to minimize pipetting steps. Binding of the terbium labeled antibody to the fluorophore-labeled phosphorylated product brings the terbium and GFP into proximity, resulting in an increase in TR-FRET. In the presence of an inhibitor, formation of phosphorylated product is reduced, and the TR-FRET value is decreased.
• GFP-4E-BP1 substrate; Invitrogen order no. PV4759 • Lanthascreen Tb-anti-p4E-BP1 (pThr46) Antibody Kit; Invitrogen order no. PV4758 • FRAP1 (mTOR) kinase; Invitrogen order no.
400 nM GFP-4E-BP1, 8 μM ATP, ˜150 ng/mL mTOR, 50 mM HEPES pH 7.5, 0.01% Polysorbate 20, 1 mM EGTA, 10 mM MnCl2, and variable amounts of test compounds.
Note: Thaw and keep mTOR, the substrate, ATP, and the antibody on ice prior to making working dilutions. Working dilutions of these components can be kept at room temperature for short periods of time the day of use. • 1. Add 2 ml of 5× Assay Buffer to 8 ml water to prepare 10 ml of 1× Assay Buffer, wherein the concentration of 1× Assay Buffer is 50 mM HEPES pH 7.5, 0.01% Polysorbate 20, 1 mM EGTA, and 10 mM MnCl2. • 2. Prepare Antibody/EDTA Solution by first adding 2.75 μl of Tb-anti p4E-BP1 Antibody to 2397 μl of LanthaScreen™ TR-FRET Dilution Buffer. Then, add 100 μl of 0.5 M EDTA. • 3. […] Then, add 1.6 μl of mTOR (0.45 mg/mL). • 4. Prepare ATP Solution by adding 3.2 μl of 10 mM ATP to 1997 μl of 1× Assay Buffer. Serial Dilution of Inhibitors (16 Point Curve)
Inhibitors are serially diluted in DMSO, then diluted to a 4× working concentration with 1× Assay Buffer. • 1. Dispense 40 μl of DMSO to two adjacent columns of a 96 well plate per compound (e.g. columns 1 and 2). • 2. Add 10 μl of inhibitor stock (10 mM) to the first well of the first column (A1) and mix. • 3. Remove 10 μl from A1 and transfer to the adjacent well in the next column (B1) and mix. • 4. Remove 10 μl from B1 and transfer to the next well in the first column (B2) and mix. • 5. […] Remove 4 μl of diluted compounds and add to 96 μl of 1× Assay Buffer in a 96-well plate making 4× compound dilutions. Kinase Reaction • 1. Add 2.5 μl of 4X compound dilutions to a 384-well plate. • 2. […] Preincubate for […] at RT (shaker). • 5. Add 5 μl of ATP Solution to all wells to start reactions. • 6. Shake the assay plate on a plate shaker for 30 seconds. • 7. Incubate the assay plate for one hour at room temperature (20-25° C.). Stop Step and Fluorescence Detection • 1. Add 10 μl of Antibody/EDTA Solution to each well in columns 1-9. • 2. Shake the assay plate on a plate shaker for 30 seconds. • 3. Incubate the assay plate for one hour at room temperature (20-25° C.). • 4. Measure the GFP (FRET) and terbium (reference) emission signals on a fluorescence plate reader (e.g. Perkin Elmer Envision). Data Analysis • 1. Calculate the emission ratio for each sample by dividing the GFP (FRET) signal by the terbium (reference) signal. • 2.

PI3Kalpha, sequence (P42336 whole entry, species assumed): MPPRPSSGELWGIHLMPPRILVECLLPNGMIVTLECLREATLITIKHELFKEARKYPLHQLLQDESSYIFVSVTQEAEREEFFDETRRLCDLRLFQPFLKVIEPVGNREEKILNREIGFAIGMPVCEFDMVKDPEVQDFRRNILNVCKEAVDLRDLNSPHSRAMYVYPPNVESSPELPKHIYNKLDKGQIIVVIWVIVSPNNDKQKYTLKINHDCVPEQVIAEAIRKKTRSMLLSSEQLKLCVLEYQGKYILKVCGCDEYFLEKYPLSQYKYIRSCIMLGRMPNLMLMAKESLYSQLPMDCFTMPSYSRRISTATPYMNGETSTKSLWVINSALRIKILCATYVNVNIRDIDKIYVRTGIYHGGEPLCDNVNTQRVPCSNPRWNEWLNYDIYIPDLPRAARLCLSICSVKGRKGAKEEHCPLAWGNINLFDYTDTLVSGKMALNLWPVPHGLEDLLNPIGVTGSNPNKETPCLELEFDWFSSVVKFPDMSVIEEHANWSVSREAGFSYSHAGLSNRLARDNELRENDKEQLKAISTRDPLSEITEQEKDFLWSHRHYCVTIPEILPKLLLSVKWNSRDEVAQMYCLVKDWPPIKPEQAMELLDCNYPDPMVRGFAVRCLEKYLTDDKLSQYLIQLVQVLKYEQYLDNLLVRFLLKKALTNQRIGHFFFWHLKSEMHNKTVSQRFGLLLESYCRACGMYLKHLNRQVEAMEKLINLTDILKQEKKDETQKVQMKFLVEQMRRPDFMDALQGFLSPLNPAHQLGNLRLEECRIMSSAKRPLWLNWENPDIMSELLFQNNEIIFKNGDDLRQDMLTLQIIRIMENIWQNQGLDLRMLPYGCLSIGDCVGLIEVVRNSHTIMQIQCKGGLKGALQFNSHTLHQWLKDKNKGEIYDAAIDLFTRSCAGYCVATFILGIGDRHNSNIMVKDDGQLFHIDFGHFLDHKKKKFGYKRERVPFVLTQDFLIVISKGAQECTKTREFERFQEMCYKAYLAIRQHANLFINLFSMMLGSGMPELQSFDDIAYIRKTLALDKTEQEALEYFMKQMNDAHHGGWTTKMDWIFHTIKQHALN
PI3Kalpha, sequence (P27986 whole entry partner, species assumed): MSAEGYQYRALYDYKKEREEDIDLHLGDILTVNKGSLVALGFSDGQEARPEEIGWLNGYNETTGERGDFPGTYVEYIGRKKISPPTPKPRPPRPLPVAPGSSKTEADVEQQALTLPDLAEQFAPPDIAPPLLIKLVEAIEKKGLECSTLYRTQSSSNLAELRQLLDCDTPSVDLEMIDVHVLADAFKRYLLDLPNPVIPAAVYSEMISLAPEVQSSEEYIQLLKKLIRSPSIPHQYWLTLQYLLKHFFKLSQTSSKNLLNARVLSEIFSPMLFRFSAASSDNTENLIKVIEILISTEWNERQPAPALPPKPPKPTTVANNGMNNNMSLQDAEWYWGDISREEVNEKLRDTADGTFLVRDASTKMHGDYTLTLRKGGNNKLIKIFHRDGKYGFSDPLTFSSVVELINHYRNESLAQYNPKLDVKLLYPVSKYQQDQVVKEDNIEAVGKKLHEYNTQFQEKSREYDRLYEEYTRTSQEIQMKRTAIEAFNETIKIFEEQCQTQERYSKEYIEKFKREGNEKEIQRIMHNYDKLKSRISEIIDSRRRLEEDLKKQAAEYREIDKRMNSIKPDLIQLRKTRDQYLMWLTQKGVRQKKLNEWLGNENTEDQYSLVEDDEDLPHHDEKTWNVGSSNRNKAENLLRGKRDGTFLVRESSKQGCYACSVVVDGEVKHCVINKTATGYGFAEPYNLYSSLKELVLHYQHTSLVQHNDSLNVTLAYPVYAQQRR
mTOR, sequence (P42345 1360-2549): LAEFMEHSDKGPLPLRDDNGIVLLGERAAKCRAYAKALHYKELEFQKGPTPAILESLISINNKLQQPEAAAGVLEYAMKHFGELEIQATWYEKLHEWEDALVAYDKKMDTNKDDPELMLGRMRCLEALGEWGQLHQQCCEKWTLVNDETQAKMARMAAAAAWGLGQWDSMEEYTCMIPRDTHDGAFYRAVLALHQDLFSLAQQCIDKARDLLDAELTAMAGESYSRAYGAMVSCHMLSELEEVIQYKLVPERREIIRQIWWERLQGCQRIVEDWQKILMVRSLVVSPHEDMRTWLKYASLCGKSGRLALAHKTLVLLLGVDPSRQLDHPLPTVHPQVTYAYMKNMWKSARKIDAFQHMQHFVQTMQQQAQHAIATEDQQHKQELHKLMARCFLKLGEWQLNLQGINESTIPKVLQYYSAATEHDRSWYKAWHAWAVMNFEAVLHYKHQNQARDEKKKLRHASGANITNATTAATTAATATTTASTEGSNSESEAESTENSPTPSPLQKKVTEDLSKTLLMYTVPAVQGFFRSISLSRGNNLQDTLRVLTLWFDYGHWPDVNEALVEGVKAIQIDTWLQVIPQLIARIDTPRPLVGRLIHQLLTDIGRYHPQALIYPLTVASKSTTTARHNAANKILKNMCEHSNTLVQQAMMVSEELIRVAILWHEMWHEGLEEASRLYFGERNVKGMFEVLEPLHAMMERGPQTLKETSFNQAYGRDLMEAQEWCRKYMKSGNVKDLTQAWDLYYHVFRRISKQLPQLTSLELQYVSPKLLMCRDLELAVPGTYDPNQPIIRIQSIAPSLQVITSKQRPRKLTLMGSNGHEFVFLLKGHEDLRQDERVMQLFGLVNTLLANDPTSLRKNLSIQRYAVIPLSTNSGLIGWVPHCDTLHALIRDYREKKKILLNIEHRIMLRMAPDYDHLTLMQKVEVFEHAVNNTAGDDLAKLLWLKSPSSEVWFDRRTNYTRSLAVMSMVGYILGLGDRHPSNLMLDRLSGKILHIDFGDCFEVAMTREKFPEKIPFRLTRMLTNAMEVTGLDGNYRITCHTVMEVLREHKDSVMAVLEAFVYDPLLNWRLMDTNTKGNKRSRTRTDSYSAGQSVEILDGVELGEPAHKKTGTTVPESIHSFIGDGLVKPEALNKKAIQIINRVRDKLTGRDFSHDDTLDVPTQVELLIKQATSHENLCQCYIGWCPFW

Row | SMILES | EC50 [1] | IC50 PI3Ka [2] | IC50 [3]
1 | CCc1ncnc(N2CCC(O)CC2)c1C#Cc1ccc(N)nc1 [Example B-48] | 141 nM | 99 nM | 14 nM
2 | CCc1ncnc(N2CCC(O)(CC)CC2)c1C#Cc1ccc(C)nc1 [Example B-33] | 152 nM | 102 nM | 51 nM
3 | CCc1ncnc(N2CCC(O)(C3CCCCC3)CC2)c1C#Cc1ccc(N)nc1 [Example B-12] | 94 nM | 189 nM | 16 nM
4 | Cc1ncnc(N2CCN(C3CC3)CC2)c1C#Cc1ccc(N)nc1 [Example B-5] | 118 nM | 58 nM | 10 nM
5 | CCc1ncnc(N2CC[S+]([O-])CC2)c1C#Cc1ccc(N)nc1 [Example B-52] | 180 nM | 104 nM | 28 nM
6 | CCc1ncnc(N2CCN(C(=O)C3CC3)CC2)c1C#Cc1ccc(N)nc1 [Example G-4] | 206 nM | 46 nM | 113 nM
7 | CCc1ncnc(N2CCCC(CO)C2)c1C#Cc1ccc(C)nc1 (stereo not drawn) [Example B-71] | 388 nM | 90 nM | 108 nM
8 | CCc1ncnc(N2CCC(O)(Cc3ccccc3)CC2)c1C#Cc1ccc(N)nc1 [Example B-17] | 129 nM | 115 nM | 74 nM
9 | Cc1ncnc(N2CCC(O)(Cc3ccccc3)CC2)c1C#Cc1ccc(N)nc1 [Example B-28] | 195 nM | 70 nM | 50 nM
10 | Cc1ncnc(N2CCC3(CCNC3=O)CC2)c1C#Cc1ccc(N)nc1 [Example B-84] | 126 nM | 32 nM | 19 nM
11 | Cc1ncnc(N2CCC(O)C(C)C2)c1C#Cc1ccc(N)nc1 (stereo not drawn) [Example B-67] | 174 nM | 90 nM | 43 nM
12 | CCc1ncnc(N2CCN(S(C)(=O)=O)CC2)c1C#Cc1ccc(N)nc1 [Example B-43] | 139 nM | 88 nM | 16 nM
13 | CCCCCC(=O)NCC1CCN(c2ncnc(C)c2C#Cc2ccc(N)nc2)CC1 [Example F-2] | 344 nM | 23 nM | 31 nM
14 | CCc1ncnc(N2CCC3(CCNC3=O)CC2)c1C#Cc1ccc(N)nc1 [Example B-85] | 153 nM | 95 nM | 30 nM
15 | CCc1ncnc(N2CCC3(CCN(C)C3=O)CC2)c1C#Cc1ccc(N)nc1 [Example B-77] | 43 nM | 67 nM | 8 nM
16 | Cc1ncnc(N2CCn3c(C)cnc3C2)c1C#Cc1ccc(N)nc1 [Example B-76] | 233 nM | 60 nM | 97 nM
17 | CCc1ncnc(N2CCOCC2)c1C#Cc1ccc(N)nc1 [Example B-57] | 119 nM | 46 nM | 93 nM
18 | Cc1ncnc(N2C[C@@H](C)O[C@@H](C)C2)c1C#Cc1ccc(N)nc1 [Example B-9] | 184 nM | 34 nM | 11 nM
19 | Cc1ccc(C(=O)N2CCN(c3ncnc(C)c3C#Cc3ccc(N)nc3)CC2)o1 [Example G-10] | 221 nM | 25 nM | 60 nM
20 | CCc1ncnc(N2CCC(CCO)CC2)c1C#Cc1ccc(C)nc1 [Example B-29] | 234 nM | 88 nM | 67 nM
21 | CCc1ncnc(N2CCN(C3CC3)CC2)c1C#Cc1ccc(N)nc1 [Example B-51] | 129 nM | 86 nM | 43 nM

Row | SMILES | EC50 [1] | IC50 PI3Ka [2] | IC50 [3]
22 | CCc1ncnc(N2CCNC(=O)CC2)c1C#Cc1ccc(N)nc1 [Example B-54] | 211 nM | 133 nM | 14 nM
23 | CCc1ncnc(N2CCCC(CO)C2)c1C#Cc1ccc(N)nc1 (stereo not drawn) [Example B-49] | 124 nM | 73 nM | 28 nM
24 | CCc1ncnc(N2CCN(C(=O)c3ccccc3)CC2)c1C#Cc1ccc(N)nc1 [Example G-5] | 225 nM | 110 nM | 157 nM
25 | CCc1ncnc(N2CCC(O)(C(F)(F)F)CC2)c1C#Cc1ccc(N)nc1 [Example B-19] | 3 nM | 53 nM | 1 nM
26 | CCc1ncnc(N2CCN(C(=O)c3ccccn3)CC2)c1C#Cc1ccc(N)nc1 [Example G-2] | 138 nM | 47 nM | 90 nM
27 | CCc1ncnc(N2CCC(COC)CC2)c1C#Cc1ccc(N)nc1 [Example B-39] | 50 nM | 87 nM | 19 nM
28 | CCc1ncnc(N2CCC(C)(O)CC2)c1C#Cc1ccc(N)nc1 [Example B-47] | 46 nM | 36 nM | 5 nM
29 | CC(=O)NC1CCN(c2ncnc(C)c2C#Cc2ccc(N)nc2)CC1 [Example B-25] | 267 nM | 78 nM | 42 nM
30 | CCc1ncnc(N2CCC(OC)CC2)c1C#Cc1ccc(C)nc1 [Example B-68] | 589 nM | 183 nM | 122 nM
31 | CC(=O)N1CCCN(c2ncnc(C)c2C#Cc2ccc(N)nc2)CC1 [Example B-7] | 722 nM | 348 nM | 94 nM
32 | Cc1ncnc(N2CCC(CNC(=O)C3CCCCC3)CC2)c1C#Cc1ccc(N)nc1 [Example F-6] | 277 nM | 51 nM | 78 nM
33 | CCc1ncnc(N2CCC3(CC2)CC(=O)NC(=O)C3)c1C#Cc1ccc(N)nc1 [Example B-82] | 77 nM | 38 nM | 5 nM
34 | CCc1ncnc(N2CCN(C(=O)CC#N)CC2)c1C#Cc1ccc(N)nc1 [Example G-3] | 550 nM | 60 nM | 91 nM
35 | CCc1ncnc(N2CCC(CO)CC2)c1C#Cc1ccc(C)nc1 [Example B-72] | 474 nM | 134 nM | 70 nM
36 | CCc1ncnc(N2CCN(C(=O)OC)CC2)c1C#Cc1ccc(N)nc1 [Example G-6] | 106 nM | 52 nM | 101 nM
37 | CCc1ncnc(N2CCC(OC)CC2)c1C#Cc1ccc(N)nc1 [Example B-44] | 76 nM | 58 nM | 10 nM
38 | CCc1ncnc(N2CCC(CO)CC2)c1C#Cc1ccc(N)nc1 [Example B-45] | 46 nM | 58 nM | 10 nM
39 | Cc1ncnc(N2CCC(O)(C(C)C)CC2)c1C#Cc1ccc(N)nc1 [Example B-66] | 24 nM | 51 nM | 5 nM
40 | CCc1ncnc(N2CCN(C(=O)c3ccco3)CC2)c1C#Cc1ccc(N)nc1 [Example G-7] | 197 nM | 37 nM | 60 nM
41 | Cc1ncnc(N2CCC(CC(C)(C)O)CC2)c1C#Cc1ccc(N)nc1 [Example B-13] | 51 nM | 29 nM | 18 nM
42 | CCc1ncnc(N2CCC3(CC2)OCCO3)c1C#Cc1ccc(N)nc1 [Example B-22] | 32 nM | 57 nM | 4 nM
